Twelve compounds from patent EP1956033A1, “Acrylimides with initiator characteristics” (Mondi Release Liner Austria GmbH, priority 2007, dated 2008) can be followed below.

A short description of assay [1]: Test under self-initiation: irradiation and polymerisation in bulk without additional initiator. The conditions noted are these: for DBC / Rate / tmax: 100 wt-% compound, in bulk, no additional initiator; for Polymerisationsraten in Substanz gegenüber Verwendung als Initiatoren für HDDA (Faktor): ratio of rate in bulk to rate of the same compound as initiator in HDDA. On the set-up: Rate: unit not given here.

The nature of assay [2]: Test for initiator properties: photopolymerisation of HDDA with the acrylimide added as initiator. The conditions noted are these: approx. 6 mol-% imido groups in HDDA, 250-450 nm, 900 mW/cm^2; for DBC: double bond conversion from heat of polymerisation; for Rate: mean polymerisation rate of the mixture, means of multiple determinations; for tmax: time to exotherm maximum (maximum polymerisation rate). The source says:
Dabei wurden die üblichen Polymerisationsparameter aufgezeichnet, und die Ergebnisse sind (als Mittelwerte von […]) in […] gibt die "Rate" die […]) des jeweiligen […] an. "DBC" ("double bond conversion"; in %) […] aus der Polymerisationswä[…] an polymerisierten Doppelbindungen, bezogen auf die […], und "tmax" ist die bis zum Erreichen des […]. bis zur […]) erforderliche Zeit (in s). Zusätzlich sind der Gehalt der jeweiligen Verbindung in HDDA in Gew.-% und in Mol-% sowie der Gehalt an Acrylimidogruppen in Mol-% angegeben. Tabelle 1

A short description of assay [3]: Preliminary tests of the inventors on di(meth)acrylated carboxamides (reactivity / initiator properties). The source says: Da sich in der Literatur keine Hinweise auf derartige Eigenschaften von Di(meth)-acrylamiden fanden, zielten Vorversuche der Erfinder auf Triacylamide ab, in denen zwei der Acylgruppen (Meth)acrylgruppen waren.

For the compound `C=CC(=O)N(CCC)C(=O)C=C` [[12], N-Propylacrylimid], in assay [1], the DBC was 95,2%, the Rate is recorded as 196,3 and the tmax is given as 20,4 s. Further, in assay [2], the DBC is 82,6%, the Rate was 29,8 10^3 mol/l.s and the tmax is 159,6 s.

Consider `C=CC(=O)N(CCCCCC)C(=O)C=C` [[13], N-Hexylacrylimid], for which, in assay [1], the DBC was 92,7%, the Rate is reported as 170,0 and the tmax is given as 21,3 s. In assay [2], the DBC is 80,2%, the Rate is 28,5 10^3 mol/l.s and the tmax is reported as 159,9 s.

Regarding `C=CC(=O)N(CC(CC)CCCC)C(=O)C=C` (stereo not drawn) [[14], N-2-Ethylhexylacrylimid], in assay [1], the DBC is listed as 89,1%, the Rate is on record as 164,8 and the tmax is reported as 21,8 s. Moreover, in assay [2], the DBC was 80,9%, the Rate was 28,3 10^3 mol/l.s and the tmax was 157,1 s.

With `C=CC(=O)N(CCN(CC)CC)C(=O)C=C` [[15], N-(2-Diethylaminoethyl)acrylimid], in assay [1], the DBC is reported as 90,3%, the Rate was 167,4 and the tmax is recorded as 20,9 s. Besides, in assay [2], the DBC is reported as 80,2%, the Rate is on record as 27,7 10^3 mol/l.s and the tmax is 160,8 s.

In the case of `C=CC(=O)N(CCCCCCN(C(=O)C=C)C(=O)C=C)C(=O)C=C` [[16], N,N'-(1,6-Hexylen)bisacrylimid], in assay [2], the DBC is reported as 75,7%, the Rate is 20,6 10^3 mol/l.s and the tmax is recorded as 162,4 s.

Regarding `C=CC(=O)N(CCC(C)(C)CC(C)CN(C(=O)C=C)C(=O)C=C)C(=O)C=C` (stereo not drawn) [[17], N,N'-(2,4,4-Trimethyl-1,6-hexylen)bisacrylimid], in assay [1], the DBC is listed as 78,9%, the Rate is 42,6, the tmax is 19,5 s and the “Polymerisationsraten in Substanz gegenüber Verwendung als Initiatoren für HDDA (Faktor)” value (“Polymerisationsraten” below) is reported as approximately 2. In assay [2], the DBC is 75,3%, the Rate is listed as 20,2 10^3 mol/l.s and the tmax was 165,0 s.

Regarding `C=CC(=O)N(CC1CCCC(CN(C(=O)C=C)C(=O)C=C)C1)C(=O)C=C` (stereo not drawn) [[18], N,N'-(1,3-Cyclohexylendimethylen)bisacrylimid], in assay [2], the DBC is recorded as 73,6%, the Rate is on record as 19,1 10^3 mol/l.s and the tmax is on record as 167,5 s.

In the case of `C=CC(=O)N(CCCCCCCCCCCCN(C(=O)C=C)C(=O)C=C)C(=O)C=C` [[19], N,N'-(1,12-Dodecylen)bisacrylimid], in assay [2], the DBC was 76,8%, the Rate is listed as 20,9 10^3 mol/l.s and the tmax was 163,9 s.

Take `C=CC(=O)N(CCOCCOCCN(C(=O)C=C)C(=O)C=C)C(=O)C=C` [[20], N,N'-(3,6-Dioxa-1,8-octylen)bisacrylimid]: in assay [2], the DBC is on record as 74,8%, the Rate was 21,2 10^3 mol/l.s and the tmax is recorded as 171,2 s.

Turning to `C=CC(=O)N(CCC[Si](C)(C)O[Si](C)(C)CCCN(C(=O)C=C)C(=O)C=C)C(=O)C=C` [[21], N,N'-(4,6-Disila-5-oxa-4,4,6,6-tetramethyl-1,9-nonylen)bisacrylimid], in assay [1], the DBC is given as 80,2%, the tmax was 19,2 s and the “Polymerisationsraten” value was approximately 2. Further, in assay [2], the DBC is given as 78,2%, the Rate was 23,4 10^3 mol/l.s and the tmax was 153,0 s.

As for `C=CC(=O)N(CCN(CCN(C(=O)C=C)C(=O)C=C)CCN(C(=O)C=C)C(=O)C=C)C(=O)C=C` [[22], Tris(2-acrylimidoethyl)amin], in assay [1], the DBC is 73,5%, the Rate is reported as 38,1, the tmax was 16,8 s and the “Polymerisationsraten” value is given as approximately 2. In assay [2], the DBC is listed as 72,4%, the Rate is 17,8 10^3 mol/l.s and the tmax is on record as 182,2 s.

With Diacrylpropionamid, in assay [3], the “Reaktivität / Initiatoreigenschaften” value is recorded as “mäßig reaktive Monomere ohne Initiatoreigenschaften”.
